For 13 compounds, % of control, % of inhibition and % of engagement results are on record in ChEMBL document CHEMBL5465560, “Selectivity Literature for EUbOPEN Chemogenomic Library” (2024).

SMILES strings stand for the structures.

For experiment [1], the target named is Serine/threonine-protein kinase PRP4 homolog (Homo sapiens) (UniProt Q13523). Put plainly: Selectivity interaction (KinomeScan (DiscoverX)) EUB0000595a PRPF4B. The conditions noted are these: at 10 µM.
In experiment [2] the target is Calcium/calmodulin-dependent protein kinase type II subunit delta (Homo sapiens) (UniProt Q13557). Briefly: Selectivity interaction (ActivX KiNativ screen (ex vivo kinase selectivity in human PBMCs)) EUB0001619a CAMK2D. Format: cell-based. The following applies: PBMC, at 1 µM.
In experiment [3] the target is Ribosomal protein S6 kinase alpha-1 (Homo sapiens, UniProt Q15418). The following applies: at 10 µM.
Experiment [4] deals with Serine/threonine-protein kinase PLK3 (Homo sapiens, UniProt Q9H4B4). The following applies: at 10 µM.
In experiment [5] the target is Serine/threonine-protein kinase mTOR (Homo sapiens, UniProt P42345). Put plainly: Selectivity interaction (KinomeScan (DiscoverX)) EUB0000695a MTOR. The following applies: at 100 nM.
The target of experiment [6] is T1, Tyrosine-protein kinase ZAP-70 (Homo sapiens) (UniProt P43403).
T1 sequence (whole entry): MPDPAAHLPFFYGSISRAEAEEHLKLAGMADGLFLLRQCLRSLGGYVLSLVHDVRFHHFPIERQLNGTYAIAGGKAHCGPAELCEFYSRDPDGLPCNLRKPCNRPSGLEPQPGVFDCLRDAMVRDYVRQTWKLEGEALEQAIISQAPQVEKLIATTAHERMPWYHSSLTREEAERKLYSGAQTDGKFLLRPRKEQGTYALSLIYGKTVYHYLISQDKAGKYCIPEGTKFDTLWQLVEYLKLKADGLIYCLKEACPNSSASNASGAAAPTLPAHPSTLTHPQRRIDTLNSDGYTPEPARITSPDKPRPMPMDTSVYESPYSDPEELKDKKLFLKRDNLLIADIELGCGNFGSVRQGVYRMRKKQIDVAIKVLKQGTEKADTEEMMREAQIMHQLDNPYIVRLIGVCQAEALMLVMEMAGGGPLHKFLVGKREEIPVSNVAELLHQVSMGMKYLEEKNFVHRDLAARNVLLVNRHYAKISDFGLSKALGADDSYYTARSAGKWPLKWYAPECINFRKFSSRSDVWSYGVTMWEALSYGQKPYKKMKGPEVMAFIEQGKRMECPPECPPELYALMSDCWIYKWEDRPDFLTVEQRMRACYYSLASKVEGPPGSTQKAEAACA
Put plainly: Selectivity interaction (KinomeScan (DiscoverX)) EUB0000666a ZAP70. The following applies: at 10 µM.

In experiment [7] the target is T2, Serine/threonine-protein kinase Nek11 (Homo sapiens) (UniProt Q8NG66).
T2 sequence (whole entry): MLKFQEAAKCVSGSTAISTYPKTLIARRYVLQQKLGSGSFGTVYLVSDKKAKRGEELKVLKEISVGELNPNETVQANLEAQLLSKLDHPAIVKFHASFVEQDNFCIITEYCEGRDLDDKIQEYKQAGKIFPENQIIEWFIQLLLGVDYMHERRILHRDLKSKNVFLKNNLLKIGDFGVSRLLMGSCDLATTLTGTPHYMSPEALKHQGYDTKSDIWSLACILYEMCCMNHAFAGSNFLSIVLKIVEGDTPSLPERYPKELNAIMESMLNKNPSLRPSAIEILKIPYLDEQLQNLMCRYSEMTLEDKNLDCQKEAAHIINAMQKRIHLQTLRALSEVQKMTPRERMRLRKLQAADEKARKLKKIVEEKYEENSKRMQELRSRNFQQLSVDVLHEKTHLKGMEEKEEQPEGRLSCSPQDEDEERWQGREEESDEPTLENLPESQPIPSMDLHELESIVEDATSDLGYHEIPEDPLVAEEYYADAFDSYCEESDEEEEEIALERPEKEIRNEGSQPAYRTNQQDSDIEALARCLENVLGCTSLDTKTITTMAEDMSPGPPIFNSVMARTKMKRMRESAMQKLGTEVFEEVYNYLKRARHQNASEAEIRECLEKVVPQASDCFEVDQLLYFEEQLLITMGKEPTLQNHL
Put plainly: Selectivity interaction (KinomeScan (DiscoverX)) EUB0000607a NEK11. The conditions noted are these: at 10 µM.

Experiment [8] concerns the target Serine/threonine-protein kinase SMG1 (Homo sapiens) (UniProt Q96Q15). Briefly: Selectivity interaction (ActivX KiNativ screen (kinase selectivity in THP-1 cell lysates)) EUB0000639a SMG1. Format: subcellular. The following applies: lysate, at 0.01 µM.
Experiment [9] concerns the target Tyrosine-protein kinase Fer (Homo sapiens) (UniProt P16591). Briefly: Selectivity interaction (Kinase panel (Invitrogen)) EUB0000639a FER. The conditions noted are these: at 200 nM.
Experiment [10] has as its system Epidermal growth factor receptor (Homo sapiens), P00533 [UNDEFINED MUTATION]. Briefly: Selectivity interaction (Ambit KINOMEscan and KiNATiv profiling in Jurkat cells) EUB0000090b EGFR. Format: cell-based. The following applies: at 1 µM.
Experiment [11] concerns the target Serine/threonine-protein kinase Nek7 (Homo sapiens) (UniProt Q8TDX7). Briefly: Selectivity interaction (KinomeScan (DiscoverX)) EUB0001049a NEK7. The following applies: at 1 µM.
The target of experiment [12] is T3, Protein kinase C iota type (Homo sapiens) (UniProt P41743).
T3 sequence (whole entry): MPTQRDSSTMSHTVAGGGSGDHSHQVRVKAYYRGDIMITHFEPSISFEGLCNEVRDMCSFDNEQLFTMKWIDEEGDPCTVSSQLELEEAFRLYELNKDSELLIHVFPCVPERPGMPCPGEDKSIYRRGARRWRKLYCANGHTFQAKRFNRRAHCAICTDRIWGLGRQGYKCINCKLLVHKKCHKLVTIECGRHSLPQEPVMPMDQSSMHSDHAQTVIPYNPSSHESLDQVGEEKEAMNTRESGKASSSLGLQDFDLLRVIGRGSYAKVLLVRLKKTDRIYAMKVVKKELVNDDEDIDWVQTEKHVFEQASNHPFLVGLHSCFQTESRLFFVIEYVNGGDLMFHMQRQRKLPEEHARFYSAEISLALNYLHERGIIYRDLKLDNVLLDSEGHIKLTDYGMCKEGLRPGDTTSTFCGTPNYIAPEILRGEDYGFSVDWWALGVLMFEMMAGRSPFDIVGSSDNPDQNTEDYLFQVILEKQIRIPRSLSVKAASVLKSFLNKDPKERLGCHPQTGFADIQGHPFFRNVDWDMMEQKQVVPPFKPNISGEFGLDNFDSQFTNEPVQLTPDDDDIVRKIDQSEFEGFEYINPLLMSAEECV
Put plainly: Selectivity interaction (KinomeScan (DiscoverX)) EUB0000655a PRKCI. The conditions noted are these: at 10 µM.

Experiment [13] deals with Serine/threonine-protein kinase PAK 3 (Homo sapiens) (UniProt O75914). Put plainly: Selectivity interaction (KinomeScan (DiscoverX)) EUB0000618a PAK3. The following applies: at 10 µM.
Experiment [14] concerns the target Casein kinase I isoform delta (Homo sapiens, UniProt P48730). Briefly: Selectivity interaction (KinomeScan (DiscoverX)) EUB0000092b CSNK1D. The following applies: at 10 µM.
The target of experiment [15] is Serine/threonine-protein kinase SMG1 (Homo sapiens) (UniProt Q96Q15). Briefly: Selectivity interaction (Kinase panel (KiNativ target engagement assay in Jurkat cells)) EUB0001635a SMG1. Format: cell-based. The following applies: Selectivity number of off-targets 0.0, Selectivity number of targets 233.0, Source Knowledge https://www.sciencedirect.com/science/article/pii/S2451945619300674?via%3Dihub, at 1 µM.
Chain of Serine/threonine-protein kinase SMG1 (Homo sapiens) (Q96Q15 whole entry): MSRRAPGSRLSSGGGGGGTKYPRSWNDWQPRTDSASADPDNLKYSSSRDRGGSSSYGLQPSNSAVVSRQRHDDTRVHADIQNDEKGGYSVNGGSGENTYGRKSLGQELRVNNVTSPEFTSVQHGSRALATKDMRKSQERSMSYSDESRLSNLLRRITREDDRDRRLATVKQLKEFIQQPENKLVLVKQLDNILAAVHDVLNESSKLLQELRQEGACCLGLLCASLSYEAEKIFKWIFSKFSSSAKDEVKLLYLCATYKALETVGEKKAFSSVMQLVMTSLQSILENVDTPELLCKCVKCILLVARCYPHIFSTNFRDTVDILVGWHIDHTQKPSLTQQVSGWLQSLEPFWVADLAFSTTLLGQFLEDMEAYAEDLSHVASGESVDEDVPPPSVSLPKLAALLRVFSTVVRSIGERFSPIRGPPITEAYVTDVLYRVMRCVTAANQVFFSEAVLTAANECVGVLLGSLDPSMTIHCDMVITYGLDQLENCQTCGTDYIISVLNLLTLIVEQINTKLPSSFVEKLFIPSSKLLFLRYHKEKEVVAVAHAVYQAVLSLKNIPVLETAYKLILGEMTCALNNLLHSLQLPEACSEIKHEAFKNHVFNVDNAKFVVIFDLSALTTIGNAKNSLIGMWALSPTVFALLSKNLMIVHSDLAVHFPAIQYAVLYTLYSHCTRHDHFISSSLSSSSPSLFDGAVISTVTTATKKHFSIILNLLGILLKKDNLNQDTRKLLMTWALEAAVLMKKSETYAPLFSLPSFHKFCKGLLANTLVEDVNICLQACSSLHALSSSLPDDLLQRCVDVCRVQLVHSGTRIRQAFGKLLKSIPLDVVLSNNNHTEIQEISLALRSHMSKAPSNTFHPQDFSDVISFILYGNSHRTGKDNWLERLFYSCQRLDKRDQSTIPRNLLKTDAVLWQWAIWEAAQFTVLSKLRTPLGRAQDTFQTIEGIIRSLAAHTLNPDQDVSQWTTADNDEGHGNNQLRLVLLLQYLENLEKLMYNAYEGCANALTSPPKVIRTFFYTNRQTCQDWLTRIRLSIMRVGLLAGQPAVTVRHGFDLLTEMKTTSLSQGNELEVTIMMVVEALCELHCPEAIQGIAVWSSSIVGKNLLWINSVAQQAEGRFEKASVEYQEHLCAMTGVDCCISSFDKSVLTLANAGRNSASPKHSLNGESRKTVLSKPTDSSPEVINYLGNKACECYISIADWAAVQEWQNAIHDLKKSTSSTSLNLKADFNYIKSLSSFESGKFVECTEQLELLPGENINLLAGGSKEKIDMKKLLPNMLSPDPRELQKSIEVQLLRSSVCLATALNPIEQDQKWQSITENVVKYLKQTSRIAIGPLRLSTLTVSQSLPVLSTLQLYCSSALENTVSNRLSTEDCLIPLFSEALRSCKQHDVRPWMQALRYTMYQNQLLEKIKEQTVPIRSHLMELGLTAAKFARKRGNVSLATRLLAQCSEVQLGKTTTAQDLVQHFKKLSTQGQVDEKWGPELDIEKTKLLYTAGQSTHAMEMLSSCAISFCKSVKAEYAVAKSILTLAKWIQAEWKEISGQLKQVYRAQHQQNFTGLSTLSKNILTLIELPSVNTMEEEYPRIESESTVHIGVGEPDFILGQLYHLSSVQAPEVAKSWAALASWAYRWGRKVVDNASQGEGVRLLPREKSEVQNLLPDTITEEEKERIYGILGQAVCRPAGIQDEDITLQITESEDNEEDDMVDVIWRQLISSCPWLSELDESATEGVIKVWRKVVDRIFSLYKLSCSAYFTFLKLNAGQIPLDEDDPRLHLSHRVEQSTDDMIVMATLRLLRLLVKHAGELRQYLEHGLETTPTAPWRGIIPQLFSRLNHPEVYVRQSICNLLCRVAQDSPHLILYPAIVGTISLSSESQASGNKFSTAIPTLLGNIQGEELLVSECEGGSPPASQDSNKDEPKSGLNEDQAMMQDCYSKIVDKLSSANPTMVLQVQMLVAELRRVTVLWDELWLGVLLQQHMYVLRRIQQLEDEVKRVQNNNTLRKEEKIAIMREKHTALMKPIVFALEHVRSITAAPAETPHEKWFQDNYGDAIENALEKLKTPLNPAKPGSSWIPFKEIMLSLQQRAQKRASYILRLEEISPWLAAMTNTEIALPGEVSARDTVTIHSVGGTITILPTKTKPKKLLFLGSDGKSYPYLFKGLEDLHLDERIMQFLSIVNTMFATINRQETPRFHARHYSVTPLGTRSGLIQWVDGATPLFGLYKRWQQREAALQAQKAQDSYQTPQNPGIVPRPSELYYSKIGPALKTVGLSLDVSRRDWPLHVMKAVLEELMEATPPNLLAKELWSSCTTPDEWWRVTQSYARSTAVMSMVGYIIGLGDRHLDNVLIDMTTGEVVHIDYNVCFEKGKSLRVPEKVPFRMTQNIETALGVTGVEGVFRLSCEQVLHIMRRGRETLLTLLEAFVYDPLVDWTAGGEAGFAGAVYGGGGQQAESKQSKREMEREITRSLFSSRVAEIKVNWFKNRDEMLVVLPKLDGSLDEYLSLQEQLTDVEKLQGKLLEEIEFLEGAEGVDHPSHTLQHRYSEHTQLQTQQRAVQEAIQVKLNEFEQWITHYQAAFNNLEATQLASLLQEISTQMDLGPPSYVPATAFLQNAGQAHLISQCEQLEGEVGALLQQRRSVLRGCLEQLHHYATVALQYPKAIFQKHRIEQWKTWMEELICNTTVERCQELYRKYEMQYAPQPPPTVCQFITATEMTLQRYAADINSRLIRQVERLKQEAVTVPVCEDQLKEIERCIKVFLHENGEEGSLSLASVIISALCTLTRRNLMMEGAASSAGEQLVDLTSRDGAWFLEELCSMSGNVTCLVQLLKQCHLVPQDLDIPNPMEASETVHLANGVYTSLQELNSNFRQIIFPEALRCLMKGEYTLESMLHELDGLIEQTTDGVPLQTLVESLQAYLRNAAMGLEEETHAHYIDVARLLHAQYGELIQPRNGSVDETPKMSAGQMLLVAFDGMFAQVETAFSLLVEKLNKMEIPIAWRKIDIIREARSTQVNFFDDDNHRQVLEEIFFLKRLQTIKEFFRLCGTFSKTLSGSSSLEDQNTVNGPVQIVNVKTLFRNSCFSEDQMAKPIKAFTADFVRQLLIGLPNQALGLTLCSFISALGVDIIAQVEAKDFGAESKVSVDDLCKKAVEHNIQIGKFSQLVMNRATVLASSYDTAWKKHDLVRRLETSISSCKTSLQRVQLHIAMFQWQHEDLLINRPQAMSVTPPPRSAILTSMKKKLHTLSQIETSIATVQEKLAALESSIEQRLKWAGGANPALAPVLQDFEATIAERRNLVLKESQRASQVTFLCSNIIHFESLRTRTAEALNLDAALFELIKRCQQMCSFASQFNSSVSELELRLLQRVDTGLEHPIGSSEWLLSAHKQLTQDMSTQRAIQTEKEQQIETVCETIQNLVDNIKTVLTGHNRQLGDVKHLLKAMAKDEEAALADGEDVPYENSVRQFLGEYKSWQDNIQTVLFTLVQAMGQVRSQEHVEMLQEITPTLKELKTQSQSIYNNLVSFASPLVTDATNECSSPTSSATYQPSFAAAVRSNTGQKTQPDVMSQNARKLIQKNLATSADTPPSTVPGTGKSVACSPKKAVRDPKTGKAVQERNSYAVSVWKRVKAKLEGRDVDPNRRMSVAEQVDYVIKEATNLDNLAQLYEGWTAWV

Chain of Tyrosine-protein kinase Fer (Homo sapiens) (P16591 whole entry, looked up): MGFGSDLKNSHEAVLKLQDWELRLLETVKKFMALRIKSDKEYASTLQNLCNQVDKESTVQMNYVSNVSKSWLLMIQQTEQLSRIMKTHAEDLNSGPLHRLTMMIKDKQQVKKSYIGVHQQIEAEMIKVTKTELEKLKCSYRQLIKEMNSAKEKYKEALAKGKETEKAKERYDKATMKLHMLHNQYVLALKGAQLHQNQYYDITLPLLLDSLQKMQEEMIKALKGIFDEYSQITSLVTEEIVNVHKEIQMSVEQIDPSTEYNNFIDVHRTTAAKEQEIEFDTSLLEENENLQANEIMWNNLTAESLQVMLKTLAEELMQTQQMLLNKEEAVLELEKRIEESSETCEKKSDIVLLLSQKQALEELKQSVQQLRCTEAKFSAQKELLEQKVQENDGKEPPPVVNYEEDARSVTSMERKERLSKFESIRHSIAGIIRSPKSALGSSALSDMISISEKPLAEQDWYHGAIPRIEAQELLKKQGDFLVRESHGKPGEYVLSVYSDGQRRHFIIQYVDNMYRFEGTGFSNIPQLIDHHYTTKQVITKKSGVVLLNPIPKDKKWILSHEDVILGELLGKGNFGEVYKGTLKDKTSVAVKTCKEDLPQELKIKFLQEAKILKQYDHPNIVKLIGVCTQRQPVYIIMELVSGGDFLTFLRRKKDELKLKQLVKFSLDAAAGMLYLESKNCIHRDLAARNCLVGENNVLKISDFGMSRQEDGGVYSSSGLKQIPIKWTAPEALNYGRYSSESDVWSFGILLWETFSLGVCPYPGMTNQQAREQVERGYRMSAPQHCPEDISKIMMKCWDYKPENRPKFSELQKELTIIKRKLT
Chain of Serine/threonine-protein kinase Nek7 (Homo sapiens) (Q8TDX7 whole entry, looked up): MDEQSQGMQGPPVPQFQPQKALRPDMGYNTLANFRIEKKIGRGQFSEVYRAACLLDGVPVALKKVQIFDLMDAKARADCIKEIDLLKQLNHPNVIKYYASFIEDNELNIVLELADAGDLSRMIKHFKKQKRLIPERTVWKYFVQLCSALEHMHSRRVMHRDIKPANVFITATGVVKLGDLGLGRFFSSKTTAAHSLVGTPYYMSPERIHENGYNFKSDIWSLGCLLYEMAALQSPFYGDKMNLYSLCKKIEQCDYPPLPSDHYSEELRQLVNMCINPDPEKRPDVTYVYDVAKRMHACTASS

Compound `COCC(=O)NC/C=C/c1ccc2ncnc(Nc3ccc(Oc4ccc(C)nc4)c(C)c3)c2c1` [CP-724714] yielded a % of control in [1] of 93%.
As for `N#Cc1cccc(-c2c[nH]c3ncnc(N4CCOCC4)c23)c1`, the % of inhibition in experiment [2] was -38%.
Take `CCN(CC)CCCCNc1ncc2cc(-c3cc(OC)cc(OC)c3)c(NC(=O)NC(C)(C)C)nc2n1`: the % of control in experiment [3] and in experiment [4] was 100% each time.
On to `Cc1cc(F)c(C(=O)Nc2cccc(-c3nncn3C(C)C)n2)cc1-n1cnc(C2CC2)c1`, for which the % of control in [5] turned out to be 100%.
As for `O=C(NOC[C@H](O)CO)c1ccc(F)c(F)c1Nc1ccc(I)cc1F`, the % of control in [6] worked out at 89%.
Take `CNC(=O)Nc1ccc(-c2nc(N3CC4CCC(C3)O4)c3cnn(C4CCC5(CC4)OCCO5)c3n2)cc1`: in [7], the % of control was 99%.
On to `CC[C@@H]1[C@H](F)C(=O)N[C@@H]1COc1nccc2cc(C(N)=O)c(OC)cc12` [ZIMLOVISERTIB], for which the % of inhibition was -2.1% in [8] and 9.46% in [9].
The compound `CN(C)C/C=C/C(=O)Nc1ccc(C(=O)N2CCCC(Nc3ncc(Cl)c(-c4c[nH]c5ccccc45)n3)C2)cc1` (stereo not given) had a % of control in experiment [10] of 80%.
In experiment [11], `COc1cc(Nc2nc(C)cc(-c3cnn4nc(OC)ccc34)n2)cc(C(F)(F)F)c1` had a % of control of 83%.
`CN(C)CCOc1ccc(-c2nc(-c3ccncc3)c(-c3ccc4c(c3)CC/C4=N\O)[nH]2)cc1`: in experiment [12], the % of control amounted to 80%.
`O[C@H]1CC[C@H](Nc2ncc3nc(Nc4c(F)cc(F)cc4F)n([C@H]4CCOC4)c3n2)CC1`: the % of control in experiment [13] is 100%.
In the case of `CCC(=O)N1CCN(c2ccc(-n3c(=O)ccc4cnc5ccc(-c6cnc7ccccc7c6)cc5c43)cc2C(F)(F)F)CC1`, the % of control in experiment [14] was 4.3%.
With `C=CC(=O)Nc1ccc(C(=O)Nc2[nH]nc3c2CN(C(=O)N[C@H](CN(C)C)c2ccccc2)C3(C)C)cc1`, in experiment [15], the % of engagement is -4.6%.
